Patent EP1709964A2, “A method of cosmetic depigmentation care by applying at least one aurone” (ENGELHARD LYON, priority 2005, dated 2006)
Where two headings read alike, the source gives them in different places.

Experiments:
Human tyrosinase [1] = target: T1, Human tyrosinase (Homo sapiens, UniProt P14679); assay: Inhibition of human tyrosinase in a monolayer after 24 h application of the actives on normal human melanocytes (MBTH/L-Dopa, OD 490 nm/protein); type: cell-based; settings: for inhibition at 1000 µM: 10^-3 M; for Inhibition (%): model of Example 15
T1 construct: Normal human melanocytes (originating from abdominal plasty) are sown in a 24-well plate; endogenous in cells; host or cells: normal human melanocytes from abdominal plasty; donors of light, brown and black phototype
T1 sequence (P14679 19-529): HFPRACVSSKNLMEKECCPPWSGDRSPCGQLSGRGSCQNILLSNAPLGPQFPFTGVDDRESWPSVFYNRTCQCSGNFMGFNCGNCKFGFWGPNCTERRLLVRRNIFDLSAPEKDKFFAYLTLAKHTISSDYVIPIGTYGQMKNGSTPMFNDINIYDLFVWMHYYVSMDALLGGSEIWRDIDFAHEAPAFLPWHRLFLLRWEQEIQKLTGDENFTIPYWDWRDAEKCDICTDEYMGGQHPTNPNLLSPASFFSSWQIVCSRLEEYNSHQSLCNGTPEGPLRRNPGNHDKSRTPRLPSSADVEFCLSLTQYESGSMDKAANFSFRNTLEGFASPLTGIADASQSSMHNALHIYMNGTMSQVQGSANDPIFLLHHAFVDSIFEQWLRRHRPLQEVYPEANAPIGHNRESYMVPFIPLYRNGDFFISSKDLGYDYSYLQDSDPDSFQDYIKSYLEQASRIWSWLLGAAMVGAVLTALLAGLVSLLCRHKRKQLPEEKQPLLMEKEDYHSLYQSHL
Description: Normal human melanocytes (originating from abdominal plasty) are sown in a 24-well plate at the rate of 80,000 cells per well. They are cultivated up to confluence and the actives are applied for 24 hours in the culture media. After 24 hours, the media are removed and the melanocytes are picked up by mechanical action. An extraction is made by heat shock and the supernatants are then recovered and then incubated with MBTH (Sigma) and L-Dopa (Sigma).
The compound obtained in Example 9b was tested on melanocytes originating from various donors but of light phototypes according to the method described in Example 15. […] Table 6 : Inhibition of tyrosinase by compound 9b on 4 different donors.
The compound obtained in Example 9b is tested on cultures of melanocytes originating from 2 donors of brown phototypes and from one donor of negroid phototype. The method applied is that described in Example 15.
(§1) A study is made with molecules known in the literature for their depigmenting activity. These molecules are applied to the model described in Example 15 so as to compare their efficiency with respect to the aurones described above.

normal human melanocytes = assay: Cytotoxicity by PNPP determination (percentage viability); type: cell-based; settings: 24 hours at 37°C, with respect to non-treated wells
Description: The cytotoxicity of the actives is studied on normal human melanocytes in a 24-well plate by a determination with PNPP (P-nitrophenyl phosphate), a substance which is converted into p-nitrophenol by the intracellular acid phosphatases of viable cells.
The absorbance of p-nitrophenol at 405 nm is directly proportional to the number of viable cells.
The actives are tested at 2 different concentrations (10^-4 M and 10^-5 M) and are added to the culture medium and are incubated at 37°C for 24 hours. The determination with PNPP is carried out on a cell mat and the results are expressed as a percentage viability with respect to the negative control (non-treated wells). The results obtained are summarized in Table 9 below : Tableau 9 : Percentages viability obtained for the various aurone derivatives on normal human melanocytes (the molecules were tested at 2 concentrations 10^-4 and 10^-5 M.

tyrosinase from mushroom = assay: In vitro test of the inhibition of isolated tyrosinase (L-DOPA to dopachrome, OD 490 nm); type: biochemical; settings: for Inhibition of tyrosinase from mushroom, percentage inhibition: 490 nm
Source text: Tyrosinase catalyses the formation of L-dopaquinone, and then dopachrome, from L-Dopa. Dopachrome is a colored compound which is quantifiable by visible spectrophotometry at 490 nm. The use of an active which is capable of modifying the enzymatic activity manifests itself by a variation in the optical density at 490nm.
The ratio of the rates of formation of the dopachrome enables the activations or the inhibitions obtained with the various molecules tested to de determined precisely.
The sample to be tested is incubated in the presence of tyrosinase from mushroom (Sigma) for 5 minutes under agitation. L-DOPA (Sigma), substrate of the tyrosinase, is incubated for 10 minutes in the dark in the presence or the absence of the molecules to be tested. The calculation of the percentage inhibition is made by comparing the OD of the test to the OD of the negative control without molecule.
Within the context of this in vitro test, the aurone derivatives were tested at final concentrations of 10^-4M and 10^-5M.

Human tyrosinase [2] = target: T1, Human tyrosinase; assay: In vitro test of the inhibition of human tyrosinase from melanocyte extract (L-Dopa/MBTH, OD 490 nm); type: biochemical; settings: isolated human tyrosinase, read-out: Inhibition of human tyrosinase, percentage inhibition
Description: Human tyrosinase obtained from melanocyte extracts originating from healthy donors catalyses the formation of L-Dopaquinone from L-Dopa. L-dopaquinone can be quantified by visible spectrophotometry at 490 nm by virtue of a chromogen : 3-methyl-2-benzothiazolinone hydrazone (MBTH).
The melanocyte extract is obtained after lysis of the cell membranes of the normal human melanocytes which lysis is carried out by a heat shock. The supernatant is recovered and then incubated with MBTH (Sigma) and L-Dopa (Sigma).

melanocytes = tested on: melanocytes
Source text: as §1

[3] = 10^-5M, 24 hours, read-out: Inhibition of human tyrosinase after application on normal human melanocytes, percentage inhibition
[4] = 10^-4M, 24 hours, read-out: Inhibition of human tyrosinase after application on normal human melanocytes, percentage inhibition

Row | Compound | inhibition at 10 µM (Human tyrosinase [1]; [3]) [%] | Percentages viability (normal human melanocytes; 10^-5 M) [%] | Inhibition of tyrosinase from mushroom, percentage inhibition (tyrosinase from mushroom; 10^-4M) [%] | Inhibition of tyrosinase from mushroom, percentage inhibition (tyrosinase from mushroom; 10^-5M) [%] | inhibition at 100 µM (Human tyrosinase [1]; [4]) [%] | Percentages viability (normal human melanocytes; 10^-4 M) [%] | also measured
1 | CCc1ccc(/C=C2\Oc3cc(OC)cc(OC)c3C2=O)cc1 [Example 5b, (Z)-4,6-dimethoxy-2-(4'-ethylbenzylidene)benzofuran-3(2H)-one] | 19.4 | 99.62 | 0 ± 4.21 | 0 ± 2.5 |  |  | 
2 | COc1cc(O)c2c(c1)O/C(=C\c1ccc(C#N)cc1)C2=O [Example 6d] | 0 | 119.36 | 0 ± 3.51 | 0 ± 3.94 | 2.31 | 85.65 | 
3 | COc1cc(O)c2c(c1)O/C(=C\c1ccccc1)C2=O [Example 6, (Z)-2-Benzylidene-4-hydroxy-6-methoxybenzofuran-3(2H)-one] | 0 | 121.56 | 31.22 ± 3.94 | 0 ± 2.27 |  |  | 
4 | COc1cc(OC)c2c(c1)O/C(=C\c1ccccc1)C2=O [Example 5, (Z)-2-Benzylidene-4,6-dimethoxybenzofuran-3(2H)-one] | 0 | 98.55 | 0 ± 1.58 | 0 ± 0.28 | 0 | 83.1 | 
5 | 4,6-Dihydroxybenzofuran-3(2H)-one (R1 = OH) and 6-Hydroxybenzofuran-3(2H)-one (R1 = H) [Example 2] |  | 126.09 |  |  |  | 103.84 | Inhibition of human tyrosinase after application on normal human melanocytes, percentage inhibition (Human tyrosinase [1]; 10^-5M, 24 hours): 9.69%
6 | COc1cc(O)c2c(c1)O/C(=C\c1ccc(SC)cc1)C2=O [Example 6c] | 14.2 | 116.24 | 23.65 ± 9.36 | 0 ± 5.84 |  |  | 
7 | O=c1cc(CO)occ1O [Kojic acid, kojic acid] |  |  |  |  |  |  | inhibition (positive control) (tyrosinase from mushroom; kojic acid at 0.01%): 45%
8 | COc1cc(OC)c2c(c1)O/C(=C\c1ccc(SC)cc1)C2=O [Example 5c, (Z)-4,6-dimethoxy-2-(4'-methylthiobenzylidene)benzofuran-3(2H)-one] | 4.27 | 136.13 | 0 ± 1.64 | 1.07 ± 4.37 | 0 | 80.08 | 
9 | CCc1ccc(/C=C2\Oc3cc(O)cc(O)c3C2=O)cc1 [Example 7b] | 4.52 | 143.15 | 54.57 ± 3.01 | 14.63 ±6.73 |  | 63.52 | 
10 | COc1cc(OC)c2c(c1)O/C(=C\c1ccc(O)cc1)C2=O [Example 5a, (Z)-4,6-dimethoxy-2-(4'-hydroxybenzylidene)benzofuran-3(2H)-one] | 27.4 | 90.87 | 0 ± 1.33 | 0 ± 3.90 | 14.4 | 104.53 | 
11 | O=C1/C(=C/c2ccc(O)cc2)Oc2cc(O)cc(O)c21 [Example 9b, (Z)-4,6-Dihydroxy-2-(4'-hydroxybenzylidene)benzofuran-3(2H)-one] | 35.2 | 128.39 | 23.85 ± 2.42 | 0 ± 1.73 | 75.3 | 90.31 | Inhibition of human tyrosinase after application on normal human melanocytes, percentage inhibition (Human tyrosinase [1]; 10^-4M, 24 hours): 75.31 ± 8.51%; Inhibition of human tyrosinase after application on normal human melanocytes, percentage inhibition (Human tyrosinase [1]; 10^-5M, 24 hours): 35.23 ± 2.34%; inhibition at 100 µM (Human tyrosinase [1]; Donor 1 (light phototype), 10^-4 M, read-out: Inhibition of tyrosinase): 37.8%; inhibition at 10 µM (Human tyrosinase [1]; Donor 1 (light phototype), 10^-5 M, read-out: Inhibition of tyrosinase): -9.77%; inhibition at 100 µM (Human tyrosinase [1]; Donor 2 (light phototype), 10^-4 M, read-out: Inhibition of tyrosinase): 43%; inhibition at 10 µM (Human tyrosinase [1]; Donor 2 (light phototype), 10^-5 M, read-out: Inhibition of tyrosinase): -7.56%; inhibition at 100 µM (Human tyrosinase [1]; Donor 3 (light phototype), 10^-4 M, read-out: Inhibition of tyrosinase): 63.4%; inhibition at 10 µM (Human tyrosinase [1]; Donor 3 (light phototype), 10^-5 M, read-out: Inhibition of tyrosinase): 24.7%; inhibition at 1000 µM (Human tyrosinase [1]; Donor A, brown phototype, read-out: Inhibitions of tyrosinase): 97.5%; inhibition at 100 µM (Human tyrosinase [1]; Donor A, brown phototype, 10^-4 M, read-out: Inhibitions of tyrosinase): 45%; inhibition at 10 µM (Human tyrosinase [1]; Donor A, brown phototype, 10^-5 M, read-out: Inhibitions of tyrosinase): 25.4%; inhibition at 1000 µM (Human tyrosinase [1]; Donor B, brown phototype, read-out: Inhibitions of tyrosinase): 91.8%; inhibition at 100 µM (Human tyrosinase [1]; Donor B, brown phototype, 10^-4 M, read-out: Inhibitions of tyrosinase): 67%; inhibition at 10 µM (Human tyrosinase [1]; Donor B, brown phototype, 10^-5 M, read-out: Inhibitions of tyrosinase): 31.8%; inhibition at 100 µM (Human tyrosinase [1]; Donor S (light phototype), 10^-4 M, read-out: Inhibition of tyrosinase): 75.3%; inhibition at 10 µM (Human tyrosinase [1]; Donor S (light phototype), 10^-5 M, read-out: Inhibition of tyrosinase): 35.2%; inhibition at 100 µM (Human tyrosinase [1]; Donor, 10^-4 M, read-out: Inhibition): 65.8%; inhibition at 10 µM (Human tyrosinase [1]; Donor, 10^-5 M, read-out: Inhibition): 39.5%; inhibition at 100 µM (Human tyrosinase [2]; 10^-4M): 18 ± 1.6%; inhibition at 10 µM (Human tyrosinase [2]; 10^-5M): 5.62 ± 2.73%
12 | COc1cc(OC)c2c(c1)O/C(=C\c1ccc(C#N)cc1)C2=O [Example 5d, (Z)-2-(4-cyanobenzylidene)-4,6-dimethoxybenzofuran-3(2H)-one] | 0 | 96.51 | 0 ± 2.42 | 0 ± 5.47 | 0 | 98.93 | 
13 | COc1cc(OC)c2c(c1)OCC2=O [Example 4, 4,6-Dimethoxybenzofuran-3(2H)-one] | 0 | 85.33 |  |  | 0 | 106.77 | 
14 | O=C1O[C@H]([C@@H](O)CO)C(O)=C1OP(=O)(O)O [VitC PMG, reference compound] |  |  |  |  |  |  | Inhibition (%) (Human tyrosinase [1]; 0.03%): 2.93%; Inhibition (%) (Human tyrosinase [1]; 0.3%): 1.55%; Inhibition (%) (Human tyrosinase [1]; 3%): -3.49%; cytotoxicity (melanocytes): no
